pIC50: −log10 of the molar value. Like-named read-outs stand apart in the source and are kept apart here.
How the values were obtained:
TBK-1 = TBK-1 (Homo sapiens (Human), UniProt Q9UHD2); experiment: biochemical
Procedure: (§1) Compounds of the invention (synthesised as described below) were tested for activity against the IKKε and TBK-1 enzyme as follows:
(§2) Inhibitions studies were performed using a time-resolved fluorescence-based Lanthascreen™ assay. Phosphorylation of a fluorescein-labelled substrate peptide is measured using terbium-labeled phosphospecific antibodies. Terbium is excited at 340 nm and the FRET energy transfer to fluorescein is measured at 495 and 520 nm. The emission ratio between 520 and 495 is a measure of the level of phosphorylation of the substrate by the kinase.
(§3) Kinase inhibition assays (10 μL) were performed at 20° C. in 384-well plate format. Compound IC50 values were determined at the apparent Km for ATP (20 μM) based on a radiometric assay (Invitrogen) using 8 or 10 point curves in duplicate. The final reaction conditions contained 400 nM fluorescein-IkBα substrate ([…]), 20 μM ATP, 2 nM or 8 nM IKKε or TBK1 kinase respectively, and 3% DMSO in kinase assay buffer consisting of 50 mM HEPES (pH 7.5), 10 mM MgCl, 1 mM EGTA, 0.01% Brij-35.
(§4) Compound dilutions were prepared from 10 mM DMSO stocks by dilution into DMSO.
(§5) The kinase phosphorylation assay was initiated by the addition of the kinase and the reaction was allowed to proceed for 1 hr or 2.5 hr for IKKε and TBK-1 kinase respectively. […] The reaction was stopped by the addition of 10 mM EDTA, and phosphorylation was detected after a 1 hr incubation with 1.5 nM terbium-labelled antibody against phosphorylation at Serine 32 on the IkBα[…]peptide, both in TR-FRET dilution buffer (Invitrogen).
(§6) In the data presented for IKKε, <9 μM means having an activity in the range from 300 nM≦9 μM; and <300 nM means having an activity in the range 30 nM≦300 nM; and for the data presented for TBK-1, <3 μM means having an activity in the range 300 nM≦3 μM, and <300 nM means having an activity in the range 30 nM≦300 nM.

IKKβ = IKKβ (Homo sapiens (Human), UniProt O14920); experiment: IKKβ radiolabelled P33 ATP assay (Kinase Hotspot Technology); type: biochemical; conditions: for inhibition at 1 µM: read-out: IKK-β percentage inhibition (in brackets); for pIC50: single point, read-out: Concentration of compounds required for ~ 50% inhibition, IKK-β
Procedure: (§7) The compounds of examples DMX-1,8,9,14 and 16 were tested for activity against TBK1, IKKβ, Jnk1 and Jnk3 in addition to IKK-ε and TBK-1. TBK-1, IKKβ, Jnk1 and Jnk3 were screened using radiolabelled P^33 ATP using the Kinase Hotspot Technology of Reaction Biology Corp. Screening against Jnk-1 and Jnk-3 was carried out at the Km for ATP. IKK-ε and TBK-1 screening was also carried out as described above at the Km for ATP for these enzymes. […] TBK-1, IKKβ and Jnk1 were screened using radiolabelled P^33 ATP using the Kinase Hotspot Technology of Reaction Biology Corp. IKK-ε and TBK-1 screening was also carried out as described above at the Km for ATP for these enzymes.

Jnk1 = Jnk1 (Homo sapiens (Human), UniProt P45983); experiment: Jnk1 radiolabelled P33 ATP assay (Kinase Hotspot Technology); type: biochemical; conditions: for inhibition at 1 µM: single point at the concentration (1000 nM), read-out: Jnk-1 percentage inhibition (in brackets); for pIC50: read-out: Concentration of compounds required for ~ 50% inhibition, Jnk-1
Procedure: as §7

IKKε = IKKε (Homo sapiens (Human), UniProt Q14164); experiment: IKKε time-resolved fluorescence Lanthascreen kinase inhibition assay; type: biochemical
Procedure: as §1, §2, §3, §4, §5, §6

Jnk3 = Jnk3 (Homo sapiens (Human), UniProt P53779); experiment: Jnk3 radiolabelled P33 ATP assay (Kinase Hotspot Technology); type: biochemical; conditions: for pIC50: at the Km for ATP, read-out: Concentration of compounds required for ~ 50% inhibition, Jnk-3
Procedure: as §7

[1] = 20 μM ATP (apparent Km), 8 nM kinase, 2.5 hr, values are activity bands, read-out: Inhibition of TBK-1 IC50
[2] = at the Km for ATP, read-out: Concentration of compounds required for ~ 50% inhibition, TBK-1
[3] = single point at the concentration (1000 nM), 10 μM ATP
[4] = 20 μM ATP (apparent Km), 2 nM kinase, 1 hr, values are activity bands, read-out: Inhibition of IKKε IC50
[5] = at the Km for ATP, read-out: Concentration of compounds required for ~ 50% inhibition, IKK-ε
[6] = single point at the concentration (1000 nM), 1 μM ATP

Sequence of IKKβ (O14920 whole entry): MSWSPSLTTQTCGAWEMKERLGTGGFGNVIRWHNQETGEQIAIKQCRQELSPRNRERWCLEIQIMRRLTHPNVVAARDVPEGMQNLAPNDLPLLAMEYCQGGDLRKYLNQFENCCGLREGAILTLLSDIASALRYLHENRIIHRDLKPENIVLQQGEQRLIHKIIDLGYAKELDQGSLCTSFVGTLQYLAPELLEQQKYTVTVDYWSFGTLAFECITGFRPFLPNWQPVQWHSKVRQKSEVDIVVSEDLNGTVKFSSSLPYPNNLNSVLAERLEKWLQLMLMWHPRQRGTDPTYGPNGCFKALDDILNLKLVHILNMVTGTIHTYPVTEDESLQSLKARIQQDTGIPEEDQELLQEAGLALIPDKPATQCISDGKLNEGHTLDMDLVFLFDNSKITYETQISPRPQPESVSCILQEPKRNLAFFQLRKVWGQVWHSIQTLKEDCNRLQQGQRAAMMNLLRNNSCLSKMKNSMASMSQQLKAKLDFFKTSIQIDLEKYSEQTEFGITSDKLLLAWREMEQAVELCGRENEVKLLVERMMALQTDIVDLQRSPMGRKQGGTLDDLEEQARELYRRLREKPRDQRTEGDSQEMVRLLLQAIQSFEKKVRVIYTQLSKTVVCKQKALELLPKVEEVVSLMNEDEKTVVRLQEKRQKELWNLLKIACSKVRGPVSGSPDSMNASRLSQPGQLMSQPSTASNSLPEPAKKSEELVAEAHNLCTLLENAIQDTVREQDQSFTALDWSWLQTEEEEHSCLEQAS
Sequence of IKKε (Q14164 whole entry): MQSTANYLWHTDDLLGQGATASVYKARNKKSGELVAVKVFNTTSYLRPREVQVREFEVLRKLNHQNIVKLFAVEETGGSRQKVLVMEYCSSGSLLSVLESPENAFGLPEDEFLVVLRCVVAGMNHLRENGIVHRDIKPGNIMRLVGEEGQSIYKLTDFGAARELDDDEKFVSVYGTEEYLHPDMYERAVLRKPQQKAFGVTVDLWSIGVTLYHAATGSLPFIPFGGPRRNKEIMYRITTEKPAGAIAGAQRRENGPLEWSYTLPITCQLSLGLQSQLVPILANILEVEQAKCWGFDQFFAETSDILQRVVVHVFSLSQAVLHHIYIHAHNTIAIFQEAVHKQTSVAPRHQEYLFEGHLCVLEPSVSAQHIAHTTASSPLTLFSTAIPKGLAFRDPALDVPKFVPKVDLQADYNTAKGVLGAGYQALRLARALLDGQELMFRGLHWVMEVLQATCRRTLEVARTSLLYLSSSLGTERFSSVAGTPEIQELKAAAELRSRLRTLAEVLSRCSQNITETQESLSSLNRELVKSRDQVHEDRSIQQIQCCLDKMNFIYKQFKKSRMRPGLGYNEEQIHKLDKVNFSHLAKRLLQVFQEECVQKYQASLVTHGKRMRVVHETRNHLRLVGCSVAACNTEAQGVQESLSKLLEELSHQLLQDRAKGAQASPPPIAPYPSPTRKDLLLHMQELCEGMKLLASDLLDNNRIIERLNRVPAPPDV
Sequence of Jnk1 (P45983 whole entry): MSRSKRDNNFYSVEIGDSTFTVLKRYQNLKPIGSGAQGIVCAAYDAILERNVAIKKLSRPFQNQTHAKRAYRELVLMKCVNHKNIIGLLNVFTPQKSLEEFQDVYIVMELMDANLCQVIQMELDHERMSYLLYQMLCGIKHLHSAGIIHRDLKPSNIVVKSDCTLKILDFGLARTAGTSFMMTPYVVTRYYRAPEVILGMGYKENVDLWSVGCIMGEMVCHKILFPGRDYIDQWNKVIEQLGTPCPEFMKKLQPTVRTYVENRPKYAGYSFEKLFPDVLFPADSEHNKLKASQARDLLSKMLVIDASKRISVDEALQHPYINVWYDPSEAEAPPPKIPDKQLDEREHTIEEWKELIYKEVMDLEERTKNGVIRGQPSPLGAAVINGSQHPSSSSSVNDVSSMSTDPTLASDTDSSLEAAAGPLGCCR
Sequence of TBK-1 (Q9UHD2 whole entry): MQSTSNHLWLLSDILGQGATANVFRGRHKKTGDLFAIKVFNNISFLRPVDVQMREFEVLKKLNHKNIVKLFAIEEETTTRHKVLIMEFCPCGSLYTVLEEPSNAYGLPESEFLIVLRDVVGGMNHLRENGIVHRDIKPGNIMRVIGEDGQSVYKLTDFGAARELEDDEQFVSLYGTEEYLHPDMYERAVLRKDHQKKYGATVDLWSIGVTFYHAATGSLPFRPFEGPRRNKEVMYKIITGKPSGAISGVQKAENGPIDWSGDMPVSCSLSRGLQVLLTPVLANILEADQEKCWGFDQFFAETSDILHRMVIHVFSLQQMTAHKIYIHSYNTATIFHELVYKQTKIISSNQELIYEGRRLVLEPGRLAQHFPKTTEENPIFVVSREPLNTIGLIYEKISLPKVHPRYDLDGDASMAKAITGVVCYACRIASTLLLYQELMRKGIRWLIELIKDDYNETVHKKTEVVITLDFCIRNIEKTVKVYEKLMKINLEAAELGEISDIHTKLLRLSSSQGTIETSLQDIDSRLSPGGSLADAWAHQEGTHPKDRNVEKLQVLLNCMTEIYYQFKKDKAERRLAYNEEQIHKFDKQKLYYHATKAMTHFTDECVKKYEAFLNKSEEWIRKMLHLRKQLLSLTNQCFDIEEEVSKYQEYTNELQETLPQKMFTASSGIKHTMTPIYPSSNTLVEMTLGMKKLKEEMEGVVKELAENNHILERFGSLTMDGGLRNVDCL
Sequence of Jnk3 (P53779 whole entry): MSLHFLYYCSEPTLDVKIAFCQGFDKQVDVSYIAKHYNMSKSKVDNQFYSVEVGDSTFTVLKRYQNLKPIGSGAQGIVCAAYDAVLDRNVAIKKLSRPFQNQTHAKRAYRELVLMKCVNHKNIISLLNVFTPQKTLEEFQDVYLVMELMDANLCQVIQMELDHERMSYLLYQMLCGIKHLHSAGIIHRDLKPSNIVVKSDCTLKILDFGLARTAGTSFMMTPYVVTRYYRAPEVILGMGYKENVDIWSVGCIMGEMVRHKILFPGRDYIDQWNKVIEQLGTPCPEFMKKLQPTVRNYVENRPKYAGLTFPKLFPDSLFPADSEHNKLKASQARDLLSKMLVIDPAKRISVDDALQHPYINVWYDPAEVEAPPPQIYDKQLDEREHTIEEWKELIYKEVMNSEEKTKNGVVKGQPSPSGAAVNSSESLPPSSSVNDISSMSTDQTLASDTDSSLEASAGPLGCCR

| Structure (SMILES) | pIC50 (TBK-1; [1]) | pIC50 (IKKε; [4]) | further results |
| --- | --- | --- | --- |
| CN(C)CCNc1ccc(Nc2nccc(-c3ccc(N4CC[C@H](F)C4)c(C#N)c3)n2)cn1 [DMX-69] | > 7.52 | > 7.52 | pIC50 (TBK-1; [2]): 8.40; inhibition at 1 µM (IKKβ; [3]): 54%; pIC50 (IKKβ; 10 μM ATP): 6.00; inhibition at 1 µM (Jnk1; 10 μM ATP): 43%; pIC50 (Jnk1; single point, 10 μM ATP): 6.00; pIC50 (IKKε; [5]): 8.40 |
| N#Cc1cc(-c2ccnc(Nc3ccc4c(c3)CC(=O)N4)n2)ccc1N1CCCC1 [DMX-14] | > 7.52 | > 7.52 | pIC50 (Jnk3): < 5.00; pIC50 (TBK-1; [2]): 8.70; inhibition at 1 µM (IKKβ; [6]): 45%; pIC50 (IKKβ; 1 μM ATP): 6.00; pIC50 (Jnk1; at the Km for ATP): 6.70; pIC50 (IKKε; [5]): 8.52 |
| CC(=O)Nc1ccc(Nc2nccc(-c3ccc(N4CCCC4)c(C#N)c3)n2)cc1 [DMX-9] | > 7.52 | > 7.52 | pIC50 (Jnk3): 5.00; inhibition at 10 µM (Jnk3; at the printed concentration (10000 nM), Km for ATP, read-out: Jnk-3 percentage inhibition (in brackets)): 51%; pIC50 (TBK-1; [2]): 8.52; inhibition at 1 µM (IKKβ; [6]): 34%; pIC50 (IKKβ; 1 μM ATP): 6.00; pIC50 (Jnk1; at the Km for ATP): 6.58; pIC50 (IKKε; [5]): 8.52 |
| CN(C)CCNc1ccc(Nc2nccc(-c3ccc(N4CCC(C(N)=O)CC4)c(C#N)c3)n2)cn1 [DMX-64] | 6.52 to 7.52 | > 7.52 | – |
| N#Cc1cc(-c2ccnc(Nc3cccc(NC(=O)N4CCCC4)c3)n2)ccc1N1CCCC1 [DMX-22, Pyrrolidine-1-carboxylic acid {3-[4-(3-cyano-4-pyrrolidin-1-yl-phenyl)-pyrimidin-2-ylamino]-phenyl}-amide] | > 7.52 | > 7.52 | – |
| CC(=O)Nc1ccc(Nc2nccc(-c3ccc(N4CC[C@H](O)C4)c(C#N)c3)n2)cn1 [DMX-48] | > 7.52 | > 7.52 | – |
| CNC(=O)[C@H]1CCCN1c1ccc(-c2ccnc(Nc3ccc(NC(C)=O)nc3)n2)cc1C#N [DMX-67] | > 5.05 | 5.05 to 6.52 | – |
| Cn1nccc1Nc1nccc(-c2ccc(N3CCCC3)c(C#N)c2)n1 [DMX-27] | > 7.52 | 6.52 to 7.52 | – |
| Cn1ccc(Nc2nccc(-c3ccc(N4CCCC4)c(C#N)c3)n2)n1 [DMX-29] | 6.52 to 7.52 | 6.52 to 7.52 | – |
| Cn1cc(Nc2nccc(-c3ccc(N4CCCC4)c(C#N)c3)n2)cn1 [DMX-56] | > 7.52 | > 7.52 | pIC50 (TBK-1; [2]): 8.52; inhibition at 1 µM (IKKβ; [3]): 56%; pIC50 (IKKβ; 10 μM ATP): 6.00; inhibition at 1 µM (Jnk1; 10 μM ATP): 21%; pIC50 (Jnk1; single point, 10 μM ATP): < 6.00; pIC50 (IKKε; [5]): 8.10 |
| CN1CCN(c2ccc(Nc3nccc(-c4ccc(N5CCCC5)c(C#N)c4)n3)cn2)CC1 [DMX-19] | > 7.52 | > 7.52 | – |
| CC(=O)Nc1ccc(Nc2nccc(-c3ccc(N4CC(O)C4)c(C#N)c3)n2)cn1 [DMX-66] | > 7.52 | > 7.52 | pIC50 (TBK-1; [2]): 7.62; inhibition at 1 µM (IKKβ; [3]): 43%; pIC50 (IKKβ; 10 μM ATP): 6.00; inhibition at 1 µM (Jnk1; 10 μM ATP): 52%; pIC50 (Jnk1; single point, 10 μM ATP): 6.00; pIC50 (IKKε; [5]): 7.68 |
| N#Cc1cc(-c2ccnc(Nc3cccc(C(N)=O)c3)n2)ccc1N1CCCC1 [DMX-1, 3-[4-(3-cyano-4-pyrrolidin-1-yl-phenyl)-pyrimidin-2-ylamino]-benzamide] | > 7.52 | > 7.52 | pIC50 (Jnk3): < 5.00; pIC50 (TBK-1; [2]): 8.40; inhibition at 1 µM (IKKβ): 48%; pIC50 (IKKβ; 1 μM ATP): 6.00; pIC50 (Jnk1; at the Km for ATP): 6.60; pIC50 (IKKε; [5]): 8.70 |
| CC(=O)Nc1ccc(Nc2nccc(-c3ccc(N4CC[C@@H](O)C4)c(C#N)c3)n2)cn1 [DMX-73] | > 7.52 | > 7.52 | – |
| CNC(=O)C1CCN(c2ccc(-c3ccnc(Nc4ccc(NC(C)=O)nc4)n3)cc2C#N)CC1 [DMX-68] | 6.52 to 7.52 | 6.52 to 7.52 | – |
| CN(C)c1ccc(Nc2nccc(-c3ccc(N4CCCC4)c(C#N)c3)n2)cn1 [DMX-20] | > 7.52 | > 7.52 | – |
| CN1CCC(Nc2ccc(Nc3nccc(-c4ccc(N5CC[C@H](O)C5)c(C#N)c4)n3)cn2)CC1 [DMX-79] | > 7.52 | > 7.52 | – |
| CN1CCC(Nc2ccc(Nc3nccc(-c4ccc(N5CC[C@H](F)C5)c(C#N)c4)n3)cn2)CC1 [DMX-78] | > 7.52 | > 7.52 | – |
| Cn1cc(Nc2nccc(-c3ccc(N4CC[C@H](O)C4)c(C#N)c3)n2)cn1 [DMX-74] | > 7.52 | > 7.52 | – |
| CN1CCN(c2ccc(Nc3nccc(-c4ccc(N5CCC[C@@H]5C(N)=O)c(C#N)c4)n3)cn2)CC1 [DMX-55] | > 7.52 | > 7.52 | – |

| Structure (SMILES) | pIC50 (TBK-1; [1]) | pIC50 (IKKε; [4]) | further results |
| --- | --- | --- | --- |
| CN(C)CC(=O)Nc1ccc(Nc2nccc(-c3ccc(N4CCCC4)c(C#N)c3)n2)cn1 [DMX-49] | > 7.52 | > 7.52 | – |
| CC(=O)Nc1cccc(Nc2nccc(-c3ccc(N4CCCC4)c(C#N)c3)n2)c1 [DMX-7] | > 7.52 | > 7.52 | – |
| CC(=O)N(C)c1ccc(Nc2nccc(-c3ccc(N4CCCC4)c(C#N)c3)n2)cc1 [DMX-37] | > 7.52 | > 7.52 | – |
| CN(C)CCN(C)c1ccc(Nc2nccc(-c3ccc(N4CCCC4)c(C#N)c3)n2)cn1 [DMX-34] | > 7.52 | > 7.52 | – |
| Cc1cc(Nc2nccc(-c3ccc(N4CCCC4)c(C#N)c3)n2)on1 [DMX-26] | 6.52 to 7.52 | 6.52 to 7.52 | – |
| CN(C)CCOc1ccc(Nc2nccc(-c3ccc(N4CCCC4)c(C#N)c3)n2)cn1 [DMX-61] | > 7.52 | > 7.52 | – |
| Cn1nccc1Nc1nccc(-c2ccc(N3CC[C@H](O)C3)c(C#N)c2)n1 [DMX-52] | 6.52 to 7.52 | 6.52 to 7.52 | – |
| CN1CCN(c2ccc(Nc3nccc(-c4ccc(N5CC[C@H](O)C5)c(C#N)c4)n3)cn2)CC1 [DMX-54] | > 7.52 | > 7.52 | – |
| CN1CCC(Nc2ccc(Nc3nccc(-c4ccc(N5CC[C@@H](F)C5)c(C#N)c4)n3)cn2)CC1 [DMX-77] | > 7.52 | > 7.52 | – |
| CN(C)CCNc1ccc(Nc2nccc(-c3ccc(N4CC[C@H](O)C4)c(C#N)c3)n2)cn1 [DMX-62] | > 7.52 | > 7.52 | – |
| COc1ccc(Nc2nccc(-c3ccc(N4CCCC4)c(C#N)c3)n2)cn1 [DMX-58] | > 7.52 | > 7.52 | – |
| CN(C)CCNc1ccc(Nc2nccc(-c3ccc(N4CCC(O)CC4)c(C#N)c3)n2)cn1 [DMX-65] | 6.52 to 7.52 | 6.52 to 7.52 | – |
| N#Cc1cc(-c2ccnc(Nc3ccn(CC(N)=O)n3)n2)ccc1N1CCCC1 [DMX-59] | 6.52 to 7.52 | 6.52 to 7.52 | – |
| COC[C@H]1CCCN1c1ccc(-c2ccnc(Nc3ccc(NC(C)=O)nc3)n2)cc1C#N [DMX-71] | > 7.52 | > 7.52 | – |
| CC(=O)Nc1ccc(Nc2nccc(-c3ccc(N4CCOCC4)c(C#N)c3)n2)cn1 [DMX-46] | > 7.52 | 6.52 to 7.52 | – |
| CC(=O)Nc1ccc(Nc2nccc(-c3ccc(N4CCC[C@@H]4C(N)=O)c(C#N)c3)n2)cn1 [DMX-51] | 6.52 to 7.52 | 6.52 to 7.52 | – |
| CC(=O)Nc1ccc(Nc2nccc(-c3ccc(N4CCC(C(N)=O)CC4)c(C#N)c3)n2)cn1 [DMX-50, 1-{4-[2-(6-Acetylamino-pyridin-3-ylamino)-pyrimidin-4-yl]-2-cyano-phenyl}-piperidine-4-carboxylic acid amide] | 6.52 to 7.52 | > 7.52 | – |
| CN(C)CCNc1ccc(Nc2nccc(-c3ccc(N4CCCC4)c(C#N)c3)n2)cn1 [DMX-33] | > 7.52 | > 7.52 | – |
| CS(=O)(=O)c1cccc(Nc2nccc(-c3ccc(N4CCCC4)c(C#N)c3)n2)c1 [DMX-10] | > 7.52 | > 7.52 | – |

Reference: US8962609B2, “Pyrimidine compounds as inhibitors of protein kinases IKK epsilon and/or TBK-1, processes for their preparation, and pharmaceutical compositions containing them” (Domainex Limited, priority 2010, dated 2015)
